Data as given in patent publication US10292949B2, “Pharmaceutical composition comprising rimeporide for treating diseases associated with insulin resistance and β-cell dysfunction” (Merck Patent GmbH, priority 2008, dated 2019).
Counter-ions that a name gives are not always drawn.

Columns and labels:
Format in all cases: in vivo, rat
[1] = tested on: Obese, insulin resistant ZF (fa/fa) rats; test: Pharmacological Study Report I: deuterated glucose disposal test (2H-GDT); details: 4 weeks, Compound B 40 mg/kg/day in chow
Experimental: (§1) Obese, insulin resistant ZF (fa/fa) rats, which are treated from the age of 8-12 weeks, were used as IR model. Rats were housed with a 12-h light/dark cycle and free access to food and water unless otherwise noted. Studies were approved by the Institutional Animal Care and Use Committee. There were a total of 18 animals in the study (8 week-old males, provided by Charles River). Animals were randomized into 3 groups (vehicle group, Compound A group, Compound B group, n=6 per group) based on random glucose level at the beginning of the study: • Group 1: ZF rats (fa/fa) (n=6), compound A (150 mg/kg via gavage) • Group 2: ZF rats (fa/fa) (n=6), compound B (40 mg/kg/day as admixture to the chow) • Group 3: ZF rats (fa/fa) (n=6), vehicle treatment (control chow, vehicle gavage)
(§2) Group 1 and 3 animals were treated with compound A or vehicle (water) for 4 weeks (from age 8-12 weeks) via oral gavage, twice daily. Chow containing compound B was fed to Group 2 ad lib. Group 1 and Group 3 were fed with chow without compound B ad lib.
Rats underwent a 4 hour fast. […] At t=0, the blood glucose concentrations were determined with a glucometer, and a blood sample was obtained for determination of base line insulin and H2O^18 dilution. […]
One hundred micro liter aliquots of plasma samples inside the cape of an inverted vial were placed in a heating blocked filled with glass beads at 70° C. overnight and the water distillate inside the vial was collected. The deuterium and oxygen-18 isotope ratios of the blood of plasma samples were determined using a Thermo Finnigan High Temperature Conversion/Elemental Analyzer coupled with a Thermo Finnigan MAT 253 IRMS via a Conflo-III Interface. […] The deuterium isotope abundance is first calculated in δ 2H values relative to the international VSMOW standard, and then transformed to APE by using a calibration curve of standards with known enrichments. The ^2H2O enrichment was calculated for rats at 30 min after the glucose load. ^2H2O enrichment was converted to mmoles by multiplying enrichment by the TBW pool size and dividing by 20 (MW ^2H2O). […]

[2] = Pharmacological Study Report I: body weight of ZF (fa/fa) rats during 4 weeks of treatment; details: age 8-12 weeks, Compound A 150 mg/kg gavage twice daily, Compound B 40 mg/kg/day in chow
Experimental: as §1, §2

obese Zucker fa/fa rats [3] = test: Pharmacological Study Report II: HbA1c levels; details: Mean ± SD; for Base line HbA1c: baseline; for Change in HbA1c: change over the 4 week treatment period; for Week 4 HbA1c: week 4 of treatment
Experimental: (§3) Thirty-six obese Zucker fa/fa and six lean Zucker fa/? male rats obtained from Charles River, were housed under normal vivarium conditions on a 12 hour light/dark cycle. The rats were kept two to a cage with food and water available ad lib, except during the weekly, 4 hour fasts. Water continued to be available during these fasts.
(§4) Compound A corresponds to Cariporide. Compound B corresponds to 2-Methyl-4,5-di-(methylsulfonyl)-benzoyl-guanidine hydrochloride hydrate. Compounds A and B were supplied in powder form by Merck Serono. Drugs were incorporated into a pelleted diet (LabDiet, 5001) by Research Diets, Inc (New Brunswick, N.J.) at concentrations of 0.44 g/kg or 0.88 g/kg of diet to yield approximate doses of 40 or 80 mg/kg. The concentration was calculated based on the assumption that a 300 g rat would eat about 30 g/d of chow. The same chow, but without drug, was fed to rats of both the lean and fa/fa control group animals.
(§5) One week prior to the start of the study, all rats were weighed. After a 4 hour fast, a blood sample was obtained for the determination of blood glucose, insulin, and glycosylated hemoglobin levels (HbA1c). Animals were then sorted on the basis of these parameters into the groups listed below. Rats were eight weeks of age at the onset of treatment.
(§6) • 1. ZF rats (fa/fa) (n=6) chow without drug • 2. ZF rats (fa/fa) (n=6) compound A (40 mg/kg/day) • 3. ZF rats (fa/fa) (n=6) compound A (80 mg/kg/day) • 4. ZF rats (fa/fa) (n=6) compound B (40 mg/kg/day) • 5. ZF rats (fa/fa) (n=6) compound B (80 mg/kg/day) • 6. lean Zucker rats (fa/?) (n=6) chow without drug Dosing Regime
(§7) Treatment appropriate chow was continuously available for 4 weeks except during scheduled 4 h fasts conducted once per week.
HbA1c level were determined using a DCA 2000 analyzer (Bayer Healthcare LLC, Elkhart Ind.) prior to beginning the study and again at the end of the 4th week treatment period.

obese Zucker fa/fa rats [4] = test: Pharmacological Study Report II: random and fasting (4 h) blood glucose and plasma insulin levels; details: Mean ± SD; for Change in Insulin (fasting): change over the 4 week treatment period; for Week 4 Insulin (fasting): week 4 of treatment
Experimental: as §3, §4, §5, §6, §7
Both random and fasting (4 h) blood glucose levels were determined using a hand-held glucometer (OneTouch Ultra, Lifescan, Inc. Milapitas, Calif.) on blood obtained from tail capillary samples. Plasma insulin levels were determined by a rat specific ELISA (Ultra Sensitive Rat Insulin ELISA Kit, Crystal Chem, Inc., Chicago, Ill.). The 4 h fast period started at 9 a.m. and ended after a blood draw at 1 p.m.

[5] = Pharmacological Study Report II: body weight and food intake; details: for Average food consumption, Week 1 / Average food consumption, Week 2 / Average food consumption, Week 3 / Average food consumption, Week 4: fa/fa rats, average +/- SD
Experimental: as §3, §4, §5, §6, §7
individual body weights were determined once per week. Average food intake per cage was also determined once per week and the individual rat consumption was calculated by dividing the cage average by 2 (rats housed 2/cage).

SMILES: [H]/N=C(\N)NC(=O)c1cc(S(C)(=O)=O)c(S(C)(=O)=O)cc1C [Compound B, 2-Methyl-4,5-di-(methylsulfonyl)-benzoyl-guanidine hydrochloride hydrate]
- Insulin sensitivity (% 2H2O recovery per insulin AUC), increase compared to pre-treatment values [1]: ~4 fold
- Body weight, difference among vehicle- and compound-treated groups [2]: no significant differences
- Base line HbA1c (obese Zucker fa/fa rats [3]; 40 mg/kg group): 3.8 ± 0.2%
- Base line HbA1c (obese Zucker fa/fa rats [3]; 80 mg/kg group): 4.0 ± 0.4%
- Change in HbA1c (obese Zucker fa/fa rats [3]; 40 mg/kg): 0.4 ± 0.2%
- Change in HbA1c (obese Zucker fa/fa rats [3]; 80 mg/kg): 0.8 ± 0.7%
- Week 4 HbA1c (obese Zucker fa/fa rats [3]; 40 mg/kg in chow): 4.3 ± 0.3%
- Week 4 HbA1c (obese Zucker fa/fa rats [3]; 80 mg/kg in chow): 4.8 ± 0.4 %
- Baseline Insulin (fasting) (obese Zucker fa/fa rats [4]; 40 mg/kg group): 14.7 ± 2.7 ng/mL
- Baseline Insulin (fasting) (obese Zucker fa/fa rats [4]; 80 mg/kg group): 16.2 ± 11.2 ng/mL
- Change in Insulin (fasting) (obese Zucker fa/fa rats [4]; 40 mg/kg): -0.2 ± 4.4 ng/mL
- Change in Insulin (fasting) (obese Zucker fa/fa rats [4]; 80 mg/kg): -3.2 ± 11.2 ng/mL
- Week 4 Insulin (fasting) (obese Zucker fa/fa rats [4]; 40 mg/kg in chow): 14.5 ± 5.5 ng/mL
- Week 4 Insulin (fasting) (obese Zucker fa/fa rats [4]; 80 mg/kg in chow): 13.1 ± 8.2 ng/mL
- Average weekly food intake vs chow fed fa/fa controls ([5]; Zucker fa/fa rats, 4 weeks, 40 or 80 mg/kg in chow): did not differ significantly
- Average food consumption, Week 1 ([5]; 40 mg/kg in chow): 32.1 +/− 3.2 grams
- Average food consumption, Week 2 ([5]; 40 mg/kg in chow): 33.8 +/− 2.9 grams
- Average food consumption, Week 3 ([5]; 40 mg/kg in chow): 31.7 +/− 2.9 grams
- Average food consumption, Week 4 ([5]; 40 mg/kg in chow): 33.6 +/− 4.4 grams
- Average food consumption, Week 1 ([5]; 80 mg/kg in chow): 31.8 +/− 1.4 grams
- Average food consumption, Week 2 ([5]; 80 mg/kg in chow): 32.9 +/− 1.9 grams
- Average food consumption, Week 3 ([5]; 80 mg/kg in chow): 33.0 +/− 0.7 grams
- Average food consumption, Week 4 ([5]; 80 mg/kg in chow): 34.0 +/− 2.9 grams
